Experimental findings from patent US6878522B2, “Methods for the identification of compounds useful for the treatment of disease states mediated by prostaglandin D2” (priority 2000, dated 2005) are described below.

As usually defined, the EC50 is the midpoint of the concentration-response curve. Broadly, the IC50 is the concentration that inhibits the measured activity by half. A high value points to a need for much substance.

Where only a bound is given, the exact number is not on record here.

For test [1], the system named is isolated human eosinophils. The test can be described thus: [Ca2+]i mobilization in isolated human eosinophils. In kind it is cell-based. The source says: Calcium mobilization can be detected and measured by flow cytometry, and by labeling with fluorescent dyes that are trapped intracellularly. […] The ratio of fluorescence produced by the calcium-bound dye to that produce by the unbound dye is used to estimate the intracellular calcium concentration. In one embodiment, for example, the following method can be used. Cells that express CRTH2 are collected, and resuspended in fresh media at ˜2×10^5/ml the day before performing the calcium flux assay. Cells are incubated at 37° C. for not longer than 20-30 minutes, and then spun down and resuspended in 50 ml fresh PTI buffer (Hank's Buffer, pH 7.2-7.4; 10 mM Hepes; 1.6 mM CaCl2) containing Indo-1 AM, pre-warmed to 37° C., at a concentration of 10 million per ml. Cells are excited, and fluorescence is measured using a fluorimeter (Photon Technology Corporation, International). After the readout has stabilized, the time axis is reset, and PGD2 is added at a specific time point (e.g., 20 seconds). After response, the following reagents are added to the cuvette, to release and chelate total calcium, in the following order: 20 μl of 18% Triton X-100, 20 μl of 3M Tris, pH 8.5, and 20 μl of 0.5 M EGTA, pH 8.5. The experiment is repeated in the presence and the absence of a test compound. […] Therefore, in the presence of an […] test compound, the EC50 would be expected to be higher than this value, whereas in the presence of an agonist test compound, the EC50 would be expected to decrease.

For test [2], the target named is T1, human eosinophil [3H]-PGD2 binding site (Homo sapiens, UniProt Q9Y5Y4).
T1 construct: endogenous in cells; host or cells: isolated human eosinophils
T1 sequence (Q9Y5Y4 1-395): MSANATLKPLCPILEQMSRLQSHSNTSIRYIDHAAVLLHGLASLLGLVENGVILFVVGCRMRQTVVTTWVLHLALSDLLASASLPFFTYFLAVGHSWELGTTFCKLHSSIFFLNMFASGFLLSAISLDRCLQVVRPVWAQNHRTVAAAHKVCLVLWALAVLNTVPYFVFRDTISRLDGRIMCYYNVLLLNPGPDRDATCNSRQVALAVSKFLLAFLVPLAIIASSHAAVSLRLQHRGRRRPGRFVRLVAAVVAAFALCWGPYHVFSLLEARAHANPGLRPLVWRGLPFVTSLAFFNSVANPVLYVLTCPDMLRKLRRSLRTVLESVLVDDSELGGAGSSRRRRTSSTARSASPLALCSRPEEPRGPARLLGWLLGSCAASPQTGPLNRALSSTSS
Description: [3H]PGD2 binding in isolated human eosinophils. To be noted: number in brackets not defined. The source says:
As is shown in FIG. 1B, the effects of the prostaglandins and analogs on human eosinophil [^3H]-PGD2 binding site and eosinophil functional responses have the same order of potency (i.e., PGD2>PGF2a>>BW245C).

Test [3] concerns human whole blood eosinophil. Description: Human whole blood eosinophil actin-polymerization response. The class given is cell-based. To be noted: read-out: Actin-polymer EC50. The source says: Yet another secondary screening assay is an actin polymerization assay. Another biological effect of the interaction of PGD2 with CRTH2 is actin polymerization. Thus, an actin polymerization assay may be used as a secondary screen to characterize the activity of a compound isolated in the primary screening assays of the invention. In one embodiment, actin polymerization may be assayed using an actin-specific fluorescent label, nitrobenzoxadiazole (NBD)-phallacidin, which binds polymerized actin fiber. In a specific embodiment, the assay may be performed as follows: cell preparations are resuspended at 5-10×10^6 cells/ml in RPMI 1640 plus 10 mM HEPES, 100/10 Pen/Strep, and 0.5% FCS. The cell suspension is aliquoted (100 μL per well) into a 96-well U-bottom polypropylene microtiter plate. 50 ul of the appropriate stimulus (PGD2 or test compound, or both PGD2 and test compound) is added using an 8-channel pipette followed exactly 25 seconds later by 50 ul of a stopping solution which contains lysophosphotidylcholine (0.5 mg/ml), Hank's balanced salt solution (100 ul 10×), 16% formaldehyde (800 ul), and 6.6 uM NBD-phallacidin in MEOH (100 ul). The plate is allowed to sit at room temperature for 15 minutes. The plate is then centrifuged at 1000 rpm for 5 minutes, the supernatants flicked off and the cell pellets resuspended in 250 ul PBS plus 2%FCS and 0.2% sodium azide. Each sample is then read on a FACS Caliber instrument. Cells are gated using the forward scatter/side scatter data in the lymphocyte area. Responses are measured by the change in median FL-1 fluorescence between vehicle treated cells and stimulus treated cells. Test compounds can be assayed in the presence and absence of PGD2, and compared to a sample containing PGD2 alone. A compound that reduces PGD2-induced actin polymerization of CRTH2 cells is identified as a candidated CRTH2 antagonist.

Turning to `CCCCC[C@H](O)/C=C/[C@H]1[C@H](O)CC(=O)[C@@H]1C/C=C\CCCC(=O)O` [PGE2], the EC50 in test [1] is > 1000 nM; in test [3], > 300000 nM. The compound also yielded a 50% inhibitory concentration (IC50) in test [2] of 3300 nM.

As to `CCCCC[C@H](O)/C=C/[C@H]1C(=O)C[C@H](O)[C@@H]1C/C=C\CCCC(=O)O` [PGD2, prostaglandin D2], the concentration for a half-maximal effect (EC50) in test [1] turned out to be 30 nM; in test [3] it was 4 nM. In addition, the half-inhibitory concentration (IC50) in test [2] was 25 nM.

As for `CCCCC[C@H](O)/C=C/[C@@H]1[C@@H](C/C=C\CCCC(=O)O)[C@@H](O)C[C@H]1O` [PGF2α], the results for the EC50 in test [1] and in test [3] were > 1000 nM and 1900 nM, respectively. In test [2], this compound had an IC50 of 1500 nM.

With `O=C(O)CCCCCCC1C(=O)NC(=O)N1CCC(O)C1CCCCC1` (stereo not drawn) [BW-245C], the concentration giving a half-maximal response (EC50) in test [1] and in test [3] was > 1000 nM in each case. Further, in test [2], the IC50 is > 100000 nM.
